From the supplement of paper PMC8967900

How the values were obtained:
Assay in all cases: selective drug sensitivity score (sDSS, relative to normal bone marrow) (sDSS (score)); higher = more potent and effective on the cell line relative to normal bone marrow cells
Conditions in all cases: 72 h
CCRF-HSB2 = system: CCRF-HSB2
KASUMI-10 = system: KASUMI-10
PF-382 = system: PF-382
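Further: ALL cell lines in 384-well plates, five doses spanning 10,000-fold, each plate scaled between vehicle and 100 µmol/L benzalkonium chloride controls, sDSS an adapted area-under-curve metric.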

SMILES | selective drug sensitivity score (CCRF-HSB2) | selective drug sensitivity score (KASUMI-10) | selective drug sensitivity score (PF-382)
Cc1nc(=O)c2cc(CN(C)c3ccc(C(=O)N[C@@H](CCC(=O)O)C(=O)O)s3)ccc2[nH]1 [Raltitrexed] (top concentration 1000 nM) | 21.9 | 18.1 | 13.1
Cc1ccc(NS(=O)(=O)c2cccc(C#N)c2)c2[nH]cc(C#N)c12 [E7820] (top concentration 50000 nM) | 18 | 4.62 | 10.2
Cc1cc(Nc2nc(N[C@@H](C)c3ncc(F)cn3)ncc2Cl)[nH]n1 [AZD1480] (top concentration 1000 nM) | -1.78 | -0.48 | -4.08
O=C(O)CC[C@H]1CC[C@@](c2cc(F)ccc2F)(S(=O)(=O)c2ccc(Cl)cc2)CC1 [MK-0752] (top concentration 1000 nM) | 1 | 0 | 0
COc1cc(C(=O)O)ccc1NC(=O)[C@@H]1N[C@@H](CC(C)(C)C)[C@](C#N)(c2ccc(Cl)cc2F)[C@H]1c1cccc(Cl)c1F [Idasanutlin] (top concentration 10000 nM) | 15.5 | 18.4 | -12.2
CC(C)N(CCCNC(=O)Nc1ccc(C(C)(C)C)cc1)C[C@H]1O[C@@H](n2cc(Br)c3c(N)ncnc32)[C@H](O)[C@@H]1O [SGC0946] (top concentration 10000 nM) | 0.68 | -0.12 | 0.28
C=CC(=O)Nc1cccc(Oc2nc(Nc3ccc(N4CCN(C)CC4)cc3)nc3ccsc23)c1 [Olmutinib] (top concentration 1000 nM) | -0.02 | -0.02 | -0.02
COc1cc2ncnc(Nc3ccc(F)c(Cl)c3)c2cc1OCCCN1CCOCC1 [Gefitinib] (top concentration 10000 nM) | 6.16 | 1.36 | 0.26
CCC1=C[C@@H]2CN(C1)Cc1c([nH]c3ccccc13)[C@@](C(=O)OC)(c1cc3c(cc1OC)N(C)[C@H]1[C@@](O)(C(=O)OC)[C@H](OC(C)=O)[C@]4(CC)C=CCN5CC[C@]31[C@@H]54)C2 [Vinorelbine] (top concentration 10000 nM) | 20.1 | 15.7 | 11
O=S(=O)(c1cccc2c(O)nccc12)N1CCCNCC1 [Hydroxyfasudil] (top concentration 19000 nM) | 0.98 | -0.82 | -0.92
CCOc1ccn(-c2ccc(F)cc2)c(=O)c1C(=O)Nc1ccc(Oc2ccnc(N)c2Cl)c(F)c1 (top concentration 2500 nM) | 3.2 | 2.6 | 0
CONC(=O)c1ccccc1Nc1cc(Nc2cc(C)nn2C(C)C)ncc1Cl (top concentration 1000 nM) | -0.94 | -0.94 | -0.94
CC1(C)CCC(CN2CCN(c3ccc(C(=O)NS(=O)(=O)c4ccc(NCC5CCOCC5)c([N+](=O)[O-])c4)c(Oc4cnc5[nH]ccc5c4)c3)CC2)=C(c2ccc(Cl)cc2)C1 [Venetoclax] (top concentration 1000 nM) | -2.9 | 29.5 | -4.1
CNC(=O)c1ccc(C)c(-n2c(C)cc(OCc3ccc(F)cc3F)c(Br)c2=O)c1 (top concentration 1000 nM) | 0 | 0 | 0
CC[C@@H]1C(=O)OC[C@@H]1Cc1cncn1C [Pilocarpine] (top concentration 40000 nM) | -1.56 | -1.56 | -1.56
COc1cc([C@@H]2c3cc4c(cc3[C@@H](O[C@@H]3O[C@@H]5CO[C@@H](C)O[C@H]5[C@H](O)[C@H]3O)[C@H]3COC(=O)[C@H]23)OCO4)cc(OC)c1O [Etoposide] (top concentration 10000 nM) | 26 | 13 | 13.5
C[C@]1(O)C[C@@H](c2nc(-c3ccc4ccc(-c5ccccc5)nc4c3)c3c(N)nccn32)C1 [Linsitinib] (top concentration 10000 nM) | -2.28 | -2.28 | -2.88
O=C(Nc1cc(Cl)cc2c1[nH]c1cnccc12)c1cccnc1 [PS-1145] (top concentration 25000 nM) | 1.34 | 3.44 | -0.46
COc1cc(N2CCN(C)CC2)ccc1Nc1nccc(-c2cn(C)c3cnccc23)n1 [AZ191] (top concentration 10000 nM) | 1.18 | 5.38 | -1.82
c1cn2cc(-c3ccc4cn[nH]c4c3)nc(Nc3ccc(N4CCOCC4)cc3)c2n1 [Entospletinib] (top concentration 5000 nM) | -0.64 | -0.64 | -0.64
CC[C@@H]1CN(C(=O)NCC(F)(F)F)C[C@@H]1c1cnc2cnc3[nH]ccc3n12 [Upadacitinib] (top concentration 10000 nM) | -5.06 | -7.16 | -6.06

SMILES | selective drug sensitivity score (CCRF-HSB2) | selective drug sensitivity score (KASUMI-10) | selective drug sensitivity score (PF-382)
Nc1cccc2c1C(=O)N(C1CCC(=O)NC1=O)C2=O (stereo unspecified) [Pomalidomide] (top concentration 10000 nM) | -0.26 | 0.24 | -0.26
CC[C@@H]1[C@H](F)C(=O)N[C@@H]1COc1nccc2cc(C(N)=O)c(OC)cc12 (top concentration 10000 nM) | 1.88 | 3.68 | -0.42
C=CC(=O)Nc1cc(Nc2nccc(-c3cn(C)c4ccccc34)n2)c(OC)cc1N(C)CCN(C)C [Osimertinib] (top concentration 2500 nM) | 0.08 | 2.18 | -2.12
N.N.[Cl][Pt][Cl] [Cisplatin] (top concentration 100000 nM) | 21 | 12 | 10.2
CCNc1nc(Nc2cc(F)c(C(=O)N3CCOCC3)cc2OC)ncc1C(F)(F)F [GNE-7915] (top concentration 1000 nM) | -0.06 | -0.06 | -0.06
N#CC1(c2ccc(NC(=O)c3cccnc3NCc3ccncc3)cc2)CCCC1 [Apatinib] (top concentration 10000 nM) | 0.3 | 0 | 0
Clc1ccc(C(c2ccccc2Cl)C(Cl)Cl)cc1 (stereo unspecified) [Mitotane] (top concentration 10000 nM) | -0.08 | -0.08 | 0.12
CCN(c1cc(-c2ccc(CN3CCOCC3)cc2)cc(C(=O)NCc2c(C)cc(C)[nH]c2=O)c1C)C1CCOCC1 [Tazemetostat] (top concentration 10000 nM) | 1.42 | -0.08 | -0.08
C=CC(=O)Nc1cccc(Nc2nc(Nc3ccc(N4CCN(C(C)=O)CC4)cc3OC)ncc2C(F)(F)F)c1 [Rociletinib] (top concentration 10000 nM) | 1.24 | 6.94 | 0.64
Cc1nc2cccc(N)c2c(=O)n1C1CCC(=O)NC1=O (stereo unspecified) [Avadomide (CC122)] (top concentration 10000 nM) | 0 | 2.3 | 0
CCCCOc1nc(N)c2c(n1)N(Cc1cccc(CN3CCCC3)c1)CC(=O)N2 [Vesatolimod] (top concentration 10000 nM) | -3.52 | -3.52 | -3.52
CNC(=O)c1ccc(N2C(=S)N(c3cnc(C#N)c(C(F)(F)F)c3)C(=O)C23CCC3)cc1F [Apalutamide] (top concentration 10000 nM) | 0 | 0 | 0
COc1cc(Nc2c(C#N)cnc3cc(OCCCN4CCN(C)CC4)c(OC)cc23)c(Cl)cc1Cl [Bosutinib] (top concentration 10000 nM) | 27 | -1.14 | 4.76
CCCCC(=O)OCC(=O)[C@]1(O)Cc2c(O)c3c(c(O)c2[C@@H](O[C@H]2C[C@H](NC(=O)C(F)(F)F)[C@H](O)[C@H](C)O2)C1)C(=O)c1c(OC)cccc1C3=O [Valrubicin] (top concentration 5000 nM) | 15.6 | 8.48 | 1.48
C[C@@H]1CN(C(=O)c2ccc(NC(=O)c3cc(O[C@H](C)c4c(Cl)ccc(F)c4Cl)c(N)nn3)cc2)C[C@H](C)N1 [Ensartinib] (top concentration 1000 nM) | -0.64 | -2.84 | -2.64
CNC(=O)[C@@H](NC(=O)[C@H](CC(C)C)[C@H](O)C(=O)NO)C(C)(C)C [Marimastat] (top concentration 10000 nM) | -0.78 | 0.22 | -0.68
C[C@H]1C[C@@H](n2c(Nc3ccc(OC(F)(F)F)cc3)nc3cc(CCC(=O)O)ccc32)CC(C)(C)C1 (top concentration 10000 nM) | 2.56 | -0.14 | 0.66
CC[C@H](CO)Nc1nc(NCc2ccccc2)c2ncn(C(C)C)c2n1 [Seliciclib] (top concentration 10000 nM) | 0.56 | 0.86 | -1.04
Cc1ccc(-n2nc(C(C)(C)C)cc2NC(=O)Nc2ccc(OCCN3CCOCC3)c3ccccc23)cc1 [Doramapimod] (top concentration 10000 nM) | 2.76 | 1.16 | 0.46
O=c1ncn2nc(Sc3ccc(F)cc3F)ccc2c1-c1c(Cl)cccc1Cl [Neflamapimod] (top concentration 10000 nM) | 0.5 | 0 | 0.5
COc1cc2c(Nc3ccc(Cl)c(Cl)c3F)ncnc2cc1OC[C@@H]1C[C@@H]2CN(C)C[C@@H]2C1 [Tesevatinib] (top concentration 1000 nM) | 3.44 | -1.06 | -1.06
